According to PubChem BioAssay (NCI):
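Tested at 5 concentrations; 48 h exposure; 96-well plates; endpoints linearly interpolated, else capped at highest concentration. The concentration for 50% growth inhibition is given as GI50. Definition used: TGI = concentration required for complete inhibition of growth.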 Where a SMILES comes first, the peptide text is derived from it.

Legend:
Test in all cases: NCI-60 cell line screen, 48 h
[1] = test system: SK-OV-3 ovarian
[2] = test system: DU-145 prostate
[3] = test system: RXF 393 renal
[4] = test system: SNB-19 CNS
[5] = test system: HL-60(TB) leukemia
[6] = test system: A498 renal
[7] = test system: KM12 colon
[8] = test system: UACC-62 melanoma
[9] = test system: SF-295 CNS
[10] = test system: MOLT-4 leukemia

Row | SMILES | TGI [1] [µM] | TGI [2] [µM] | TGI [3] [µM] | TGI [4] [µM] | TGI [5] [µM] | TGI [6] [µM] | TGI [7] [µM] | TGI [8] [µM] | TGI [9] [µM] | TGI [10] [µM] | GI50 [1] [µM] | GI50 [2] [µM] | GI50 [3] [µM] | GI50 [4] [µM] | GI50 [5] [µM] | GI50 [6] [µM] | GI50 [10] [µM] | GI50 [7] [µM] | GI50 [8] [µM] | GI50 [9] [µM]
1 | O=S(=O)(O)c1cc(N=[N+]([O-])c2cc(S(=O)(=O)O)c3ccccc3c2)cc2ccccc12 | > 100 | 40.1 | > 100 | > 100 | > 100 | > 100 | > 100 | > 100 | > 100 |  |  |  |  |  |  |  |  |  |  | 
2 | Cc1ccccc1NC(=O)CC(=O)N1N=C(N2c3ccccc3Sc3ccccc32)CC1c1ccccc1 (configuration not stated) | > 100 |  |  | > 100 |  | > 100 | > 100 | > 100 | > 100 | > 100 |  |  |  |  |  |  |  |  |  | 
3 | Nc1cc(-c2ccc(Cl)cc2)nn1-c1nc2ccccc2nc1-c1ccccc1 | > 100 | > 100 | > 100 | > 100 | > 100 | > 100 | > 100 | > 100 | > 100 | > 100 |  |  |  |  |  |  |  |  |  | 
4 | COc1cc2c(cc1OCCCCCCCCN1C(=O)c3cccc4cccc(c34)C1=O)N=C[C@@H]1CCCN1C2=O | 9.72 | > 100 | 29.7 | > 100 | 52.3 |  | 52 | 28.4 | 43 | 9.42 |  |  |  |  |  |  |  |  |  | 
5 | N#Cc1c(N)nc2c(c1-c1ccc(Br)cc1)CSc1ccccc1-2 | > 100 | > 100 | 73.8 | > 100 | 98.5 | > 100 | > 100 | 78.1 |  | > 100 |  |  |  |  |  |  |  |  |  | 
6 | CCC(C)C(NC(=O)C1CCCN1C(=O)C(CC(C)C)NC(=O)C(CC(C)C)NC(=O)C(N)CC(C)C)C(=O)NC(C(=O)NCC(=O)NC(CC(N)=O)C(=O)NC(CC(C)C)C(=O)NC(CC(C)C)C(=O)NC(CC(C)C)C(N)=O)C(C)C (configuration not stated) (H-LLLPIVGNLLL-NH2; configuration not given here) | > 50 | > 50 |  | > 50 | > 50 | > 50 | > 50 | > 50 | > 50 | > 50 |  |  |  |  |  |  |  |  |  | 
7 | O=C1CC2(CCC(O)(c3cccs3)C(C(=O)c3cccs3)C2)C(=O)c2ccccc2N1 (configuration not stated) | > 100 | > 100 | > 100 |  | > 100 | > 100 |  | > 100 | > 100 | > 100 |  |  |  |  |  |  |  |  |  | 
8 | C1=CC(=[N+]2N=C(c3ccccc3)CC2c2ccccc2)C=CC1=C1SC(c2ccccc2)(c2ccccc2)c2ccccc21 (configuration not stated) | > 100 | > 100 | > 100 | > 100 | > 100 | > 100 | > 100 | > 100 | > 100 | > 100 |  |  |  |  |  |  |  |  |  | 
9 | Cc1cc(=O)[nH]c(/N=C(\N)Nc2ccc(Cl)cc2)n1 |  | > 100 | > 100 | > 100 | > 100 | > 100 | > 100 | > 100 | > 100 | > 100 |  |  |  |  |  |  |  |  |  | 
10 | C/C(N=Nc1nc2ccccc2[nH]1)=C1/C=CC=CN1O | > 100 | > 100 | > 100 | > 100 |  | > 100 | > 100 | > 100 | > 100 | > 100 |  |  |  |  |  |  |  |  |  | 
11 | CCCCCOC(=O)c1cc2cc(CCl)ccc2oc1=O | 45 | 17.1 | 14.6 | > 76.8 | 7.19 | 5.39 | 31.2 | 5.91 | 60.4 | > 81.7 |  |  |  |  |  |  |  |  |  | 
12 | O=C1c2ccccc2C(C2c3ccccc3C(=O)c3cc(Br)ccc32)c2ccc(Br)cc21 (configuration not stated) | > 100 | > 100 | > 100 | > 100 |  | > 100 | > 100 | > 100 | > 100 | > 100 |  |  |  |  |  |  |  |  |  | 
13 | COC(CN(C=O)[C@@H](c1ccc(Cl)cc1)c1cc2ccccc2o1)OC | 26.6 | 30.9 | 28.4 | 41.2 | 46.3 | 33.1 | 31.4 | 29.7 | 31 | 40 |  |  |  |  |  |  |  |  |  | 
14 | NC(=S)N1N=C(c2ccccc2O)CC1c1ccccc1 (configuration not stated) | 49.8 | 81.3 | 41.6 | > 100 | 27.4 | 30.1 | 43.4 | 29.7 | 29.2 | 78.7 |  |  |  |  |  |  |  |  |  | 
15 | Nc1ccc(-c2nc3cc(F)ccc3s2)cc1CO | 49.3 | > 100 | 34.9 | > 90.6 | > 100 | 0.0141 | > 100 | > 58.7 | 34.8 | > 100 |  |  |  |  |  |  |  |  |  | 
16 | CC(=O)c1ccc2c(c1)N(CCCN1CCN(CCO)CC1)c1ccccc1C2 | 30.5 | 28 | 32.6 | 33.8 | 29.2 | 30.1 | 31.1 | 23 | 31.8 | 35.2 |  |  |  |  |  |  |  |  |  | 
17 | CCCSc1ccc2[nH]c(N3C(=O)/C(=C/c4cc(OC)c(OC)c(OC)c4)N=C3c3ccccc3)cc2c1 | > 25.3 | > 37.5 | 19.9 | > 37.5 | 17.3 | > 25.8 | > 37.5 | > 37.5 | 37.1 | > 37.5 |  |  |  |  |  |  |  |  |  | 
18 | CSCCC(NC(=O)OCc1ccccc1)P(=O)(O)c1ccccc1 (configuration not stated) | > 100 | > 100 |  | > 100 | > 100 |  |  |  | > 100 | > 100 |  |  |  |  |  |  |  |  |  | 
19 | Nc1ccc(Oc2ccc(C34CC5CC(C3)CC(c3ccc(Oc6ccc(N)cc6)cc3)(C5)C4)cc2)cc1 | > 70.1 | 33.3 | > 51.9 | 38.7 | > 66.9 | 27.3 | > 45.4 | 27.3 | > 56.4 | > 100 |  |  |  |  |  |  |  |  |  | 
20 | O=C(O)C(O)C(O)C(O)C(=O)CO (configuration not stated) | > 100 | > 100 | > 100 | > 100 | > 100 | > 100 | > 100 | > 100 | > 100 | > 100 |  |  |  |  |  |  |  |  |  | 
21 | CC(C)(C)[Si](C)(C)OCC1OC(n2cnc3c(N)ncnc32)CC1OS(C)(=O)=O (configuration not stated) | > 100 | > 100 | > 100 | > 100 | > 100 | > 100 | > 100 | > 100 | > 100 | > 100 |  |  |  |  |  |  |  |  |  | 
22 | CCCN1C(=O)CSC1=Nc1ccc2cc3ccc(N=C4SCC(=O)N4CCC)cc3nc2c1 | > 100 | > 100 | > 100 | > 100 | > 100 | > 100 | > 100 | > 100 | > 100 | > 100 | 39.4 | 30.8 | 75.8 | 95.4 | > 100 | > 100 | > 100 | 35.9 | 85.9 | 30
23 | COc1ccc(C2c3cc4c(cc3OC(O)(CO)C2C(=O)O)OCO4)cc1 (configuration not stated) (tested in a mixture with another compound) | 98.5 |  | 34.7 |  | 41.7 | > 100 | 67.2 | 36.4 | 57.3 | 57.8 |  |  |  |  |  |  |  |  |  | 
24 | Cc1cnoc1NS(=O)(=O)c1ccc(Nc2nnc(/C=C/c3c(O)ccc4ccccc34)c(=O)n2N)cc1 | > 100 | > 100 | 80.2 | > 100 | 22.4 |  |  | 52.5 | > 100 | > 100 |  |  |  |  |  |  |  |  |  | 
25 | CC(C)C1OC(=O)/C=C/C=C/C=C/C=C/C=C/CC(O)C(C)C(O)CC(O)CC(O)CC(O)CC(O)CC(O)CC(O)/C=C/C1C (configuration not stated) | > 100 |  |  | > 100 |  | > 100 | > 100 | > 100 | > 100 | > 100 |  |  |  |  | 2.13 |  |  |  |  | 
26 | COC(=S)OC1CC(n2cnc3c(N)ncnc32)OC1CO[Si](C)(C)C(C)(C)C (configuration not stated) | 60.1 | 38.5 | 25.9 | > 100 | > 100 | 56.9 | 89.8 | 24 | 34.6 | > 100 |  |  |  |  |  |  |  |  |  | 
27 | COc1cc2c(cc1C)NC(=O)/C2=C/c1c(Cl)n(-c2ccccc2)c2ccccc12 | 69.7 | > 100 | 38.5 | > 100 | 22 | > 100 | > 100 | 73.5 | 49 | 33.8 |  |  |  |  |  |  |  |  |  | 
28 | CCOC(=O)C(=O)NCCCN1CCOCC1 | > 100 |  | > 100 | > 100 | > 100 | > 100 | > 100 | > 100 | > 100 | > 100 |  |  |  |  |  |  |  |  |  | 
